Measured values taken from patent publication US20090081669A1 (ENCODE BIO, INC., priority 2006, published 2009).

Columns and labels:
[1] = tested on: CAT-TAG in CHO cells; assay: CAT-TAG expression in transfected CHO cells (FAST CAT assay); assay type: cell-based; conditions: cells with O-RS/O-tRNA and CAT-TAG, grown in the presence of dansyl-alanine
Text: We first redesigned the suppressor O-tRNA gene to make it suitable for expression in mammalian cells by altering the 5′ UTR, mutating the promoter regions and generating a tandem repeat, thereby forming SEQ ID NO:6, and subcloned the O-RS gene (SEQ ID NO:12) into a mammalian expression vector. We transformed CHO cells with the plasmids encoding the modified O-RS/O-tRNA genes and a marker gene, Chloramphenicol Acetyltransferase (“CAT”), containing a nonsense TAG codon (“CAT-TAG”). Expression of CAT-TAG was assessed using a fluorescent-based assay (FAST CAT, Invitrogen, Inc.) that measures the conversion of chloramphenicol-BODIPY (FL-CM) to 3-acetyl-chloramphenicol-BODIPY (FL-AcCM) by thin layer chromatography. […] As a positive control, cells were transfected with wildtype CAT cDNA.

[2] = tested on: yeast strain MaV203; assay: Rescue of GAL4 (TAG) expression by DANSYL-O-RS/O-tRNA pair, growth in the absence of uracil; assay type: cell-based; conditions: MaV203 with DANSYL-O-RS, suppressor O-tRNA and GAL4 TAG
Text: The yeast strain MaV203 was transfected with plasmids coding for the DANSYL-O-RS (SEQ ID NO:12, derived from E. coli), suppressor O-tRNA (SEQ ID NO:5 derived from E. coli) and a marker gene, GAL4, containing nonsense TAG codons. Yeast harboring a functional DANSYL-RSOR and suppressor tRNA OR will “rescue” expression of GAL4. The MAV203 yeast strain contains the URA3 gene (required for uracil biosynthesis) under control of the GAL4 promoter. When grown in the absence of uracil, MAV203 yeast will not grow unless “rescue” of GAL4 expression occurs.

## CN(C)c1cccc2c(S(=O)(=O)NC[C@H](N)C(=O)O)cccc12
[1]
  CAT activity of transfected CHO cells: expressed significant CAT activity
[2]
  growth of transformed yeast in the absence of uracil: Growth was only observed when the transformed yeast were grown in the presence of dansyl-alanine
